Source: ChEMBL document CHEMBL4665642, “Anticancer profile of newly synthesized BRAF inhibitors possess 5-(pyrimidin-4-yl)imidazo[2,1-b]thiazole scaffold” (Bioorg Med Chem, 2019)

Tests used:
L132 = experiment: Cytotoxicity against human L132 cells assessed as reduction in cell viability by MTT assay; format: cell-based
SK-MEL-28 [1] = experiment: Cytotoxicity against human SK-MEL-28 cells assessed as reduction in cell viability by MTT assay; format: functional, cell-based
A-375 = experiment: Cytotoxicity against human A-375 cells assessed as reduction in cell viability by MTT assay; format: functional, cell-based
MDA-MB-468 = experiment: Cytotoxicity against human MDA-MB-468 cells assessed as cell viability at 10 uM incubated for 48 hrs by sulforhodamine B assay relative to control; format: functional; conditions: read-out: Activity
T47D = experiment: Cytotoxicity against human T47D cells assessed as cell viability at 10 uM incubated for 48 hrs by sulforhodamine B assay relative to control; format: functional; conditions: read-out: Activity
Hs-578T = experiment: Cytotoxicity against human HS-578T cells assessed as cell viability at 10 uM incubated for 48 hrs by sulforhodamine B assay relative to control; format: functional; conditions: read-out: Activity
MDA-MB-231 = experiment: Cytotoxicity against human MDA-MB-231 cells assessed as cell viability at 10 uM incubated for 48 hrs by sulforhodamine B assay relative to control; format: functional; conditions: read-out: Activity
MCF7 = experiment: Cytotoxicity against human MCF7 cells assessed as cell viability at 10 uM incubated for 48 hrs by sulforhodamine B assay relative to control; format: functional; conditions: read-out: Activity
DU-145 = experiment: Cytotoxicity against human DU-145 cells assessed as cell viability at 10 uM incubated for 48 hrs by sulforhodamine B assay relative to control; format: functional; conditions: read-out: Activity
RXF 393 = experiment: Cytotoxicity against human RXF 393 cells assessed as cell viability at 10 uM incubated for 48 hrs by sulforhodamine B assay relative to control; format: functional; conditions: read-out: Activity
SK-MEL-28 [2] = experiment: Cytotoxicity against human SK-MEL-28 cells assessed as cell viability at 10 uM incubated for 48 hrs by sulforhodamine B assay relative to control; format: functional; conditions: read-out: Activity
SK-MEL-2 = experiment: Cytotoxicity against human SK-MEL-2 cells assessed as cell viability at 10 uM incubated for 48 hrs by sulforhodamine B assay relative to control; format: functional; conditions: read-out: Activity
HL-60(TB) = experiment: Cytotoxicity against human HL-60(TB) cells assessed as cell viability at 10 uM incubated for 48 hrs by sulforhodamine B assay relative to control; format: functional; conditions: read-out: Activity
SR = experiment: Cytotoxicity against human SR cells assessed as cell viability at 10 uM incubated for 48 hrs by sulforhodamine B assay relative to control; format: functional; conditions: read-out: Activity
A549 = experiment: Cytotoxicity against human A549 cells assessed as cell viability at 10 uM incubated for 48 hrs by sulforhodamine B assay relative to control; format: functional; conditions: read-out: Activity
NCI-H226 = experiment: Cytotoxicity against human NCI-H226 cells assessed as cell viability at 10 uM incubated for 48 hrs by sulforhodamine B assay relative to control; format: functional; conditions: read-out: Activity
NCI-H460 = experiment: Cytotoxicity against human NCI-H460 cells assessed as cell viability at 10 uM incubated for 48 hrs by sulforhodamine B assay relative to control; format: functional; conditions: read-out: Activity
HCT-15 = experiment: Cytotoxicity against human HCT-15 cells assessed as cell viability at 10 uM incubated for 48 hrs by sulforhodamine B assay relative to control; format: functional; conditions: read-out: Activity
HCT-29 = experiment: Cytotoxicity against human […] cells assessed as cell viability at 10 uM incubated for 48 hrs by sulforhodamine B assay relative to control; format: functional; conditions: read-out: Activity
SF-539 = experiment: Cytotoxicity against human SF-539 cells assessed as cell viability at 10 uM incubated for 48 hrs by sulforhodamine B assay relative to control; format: functional; conditions: read-out: Activity
LOX IMVI = experiment: Cytotoxicity against human LOX IMVI cells assessed as cell viability at 10 uM incubated for 48 hrs by sulforhodamine B assay relative to control; format: functional; conditions: read-out: Activity
[3] = molecular target: RAF proto-oncogene serine/threonine-protein kinase (Homo sapiens, UniProt P04049); experiment: Inhibition of human CRAF using MEK1 as substrate by [gamma-33P]-ATP assay
Chain of RAF proto-oncogene serine/threonine-protein kinase (P04049 whole entry): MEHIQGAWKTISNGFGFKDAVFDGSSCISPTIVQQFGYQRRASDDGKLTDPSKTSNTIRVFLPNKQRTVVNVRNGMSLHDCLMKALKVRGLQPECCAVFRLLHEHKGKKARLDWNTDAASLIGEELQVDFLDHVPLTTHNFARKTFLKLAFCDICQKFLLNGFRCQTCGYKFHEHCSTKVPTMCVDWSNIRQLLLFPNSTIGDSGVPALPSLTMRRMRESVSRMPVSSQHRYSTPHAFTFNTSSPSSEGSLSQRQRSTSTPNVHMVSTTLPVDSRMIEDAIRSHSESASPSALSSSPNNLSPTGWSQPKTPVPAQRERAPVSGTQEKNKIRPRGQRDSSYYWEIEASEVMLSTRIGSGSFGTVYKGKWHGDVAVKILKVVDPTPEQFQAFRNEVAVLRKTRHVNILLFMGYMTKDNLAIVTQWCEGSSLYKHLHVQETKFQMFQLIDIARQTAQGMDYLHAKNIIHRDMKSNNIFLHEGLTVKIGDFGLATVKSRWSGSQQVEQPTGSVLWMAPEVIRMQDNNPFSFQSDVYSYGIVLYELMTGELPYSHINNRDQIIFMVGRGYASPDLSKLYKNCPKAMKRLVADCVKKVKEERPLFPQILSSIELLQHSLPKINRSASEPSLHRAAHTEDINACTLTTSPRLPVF

[4] = molecular target: Serine/threonine-protein kinase B-raf (Homo sapiens, UniProt P15056, V600E); experiment: Inhibition of human BRAF V600E mutant using MEK1 as substrate by […] assay
Chain of Serine/threonine-protein kinase B-raf (Homo sapiens, UniProt P15056, V600E) (P15056 2-766 V600E limits assumed): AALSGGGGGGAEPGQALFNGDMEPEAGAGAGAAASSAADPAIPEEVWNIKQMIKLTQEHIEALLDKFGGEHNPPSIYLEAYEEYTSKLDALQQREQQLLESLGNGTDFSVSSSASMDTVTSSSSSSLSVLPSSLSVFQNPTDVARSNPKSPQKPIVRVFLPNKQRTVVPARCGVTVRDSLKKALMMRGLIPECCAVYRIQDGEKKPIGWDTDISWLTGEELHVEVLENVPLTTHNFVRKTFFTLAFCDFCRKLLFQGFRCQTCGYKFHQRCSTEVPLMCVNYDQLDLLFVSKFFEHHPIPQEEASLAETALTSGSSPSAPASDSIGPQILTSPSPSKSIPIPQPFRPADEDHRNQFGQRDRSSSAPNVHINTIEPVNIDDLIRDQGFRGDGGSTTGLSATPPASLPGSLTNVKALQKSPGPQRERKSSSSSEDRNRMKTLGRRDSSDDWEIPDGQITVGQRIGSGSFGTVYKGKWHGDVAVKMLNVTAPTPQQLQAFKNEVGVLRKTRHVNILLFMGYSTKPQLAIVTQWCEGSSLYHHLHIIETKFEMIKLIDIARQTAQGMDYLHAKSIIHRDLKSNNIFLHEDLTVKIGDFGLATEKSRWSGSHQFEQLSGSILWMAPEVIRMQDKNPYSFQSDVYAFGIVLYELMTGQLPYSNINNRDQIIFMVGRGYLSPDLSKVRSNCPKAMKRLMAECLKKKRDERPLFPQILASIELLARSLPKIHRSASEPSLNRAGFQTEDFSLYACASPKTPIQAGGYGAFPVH

[5] = molecular target: Serine/threonine-protein kinase B-raf (Homo sapiens, UniProt P15056); experiment: Inhibition of human BRAF using MEK1 as substrate by […] assay
Chain of Serine/threonine-protein kinase B-raf (Homo sapiens, UniProt P15056) (P15056 whole entry): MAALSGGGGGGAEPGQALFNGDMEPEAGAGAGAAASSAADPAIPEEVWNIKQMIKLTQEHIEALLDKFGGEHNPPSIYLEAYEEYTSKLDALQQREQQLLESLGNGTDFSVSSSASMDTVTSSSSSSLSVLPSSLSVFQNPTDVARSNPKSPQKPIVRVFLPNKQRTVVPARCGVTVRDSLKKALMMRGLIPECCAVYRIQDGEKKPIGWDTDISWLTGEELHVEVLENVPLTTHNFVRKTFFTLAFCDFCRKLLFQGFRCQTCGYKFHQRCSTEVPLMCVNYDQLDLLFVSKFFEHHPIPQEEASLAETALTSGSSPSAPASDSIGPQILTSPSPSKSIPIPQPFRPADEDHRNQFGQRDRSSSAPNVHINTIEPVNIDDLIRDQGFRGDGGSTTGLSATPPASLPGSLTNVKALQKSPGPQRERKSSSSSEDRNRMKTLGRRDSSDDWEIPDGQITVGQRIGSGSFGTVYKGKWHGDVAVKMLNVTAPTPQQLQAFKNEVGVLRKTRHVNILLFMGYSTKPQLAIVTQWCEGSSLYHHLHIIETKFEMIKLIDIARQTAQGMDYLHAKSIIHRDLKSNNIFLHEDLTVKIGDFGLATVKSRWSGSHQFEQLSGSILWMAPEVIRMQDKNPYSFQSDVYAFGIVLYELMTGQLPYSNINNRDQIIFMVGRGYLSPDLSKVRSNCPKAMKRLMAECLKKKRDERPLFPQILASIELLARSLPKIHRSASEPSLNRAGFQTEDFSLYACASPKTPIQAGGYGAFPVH

## O=S(=O)(NCCCNc1nccc(-c2c(-c3cccc(F)c3)nc3sccn23)n1)c1ccccc1
L132
  IC50: > 400000 nM
SK-MEL-28 [1]
  IC50: 6850 nM
A-375
  IC50: 6600 nM
MDA-MB-468
  viability at 10 µM: 62.7%
T47D
  viability at 10 µM: 14.4%
Hs-578T
  viability at 10 µM: 89.9%
MDA-MB-231
  viability at 10 µM: 70.8%
MCF7
  viability at 10 µM: 50.8%
DU-145
  viability at 10 µM: 72.7%
RXF 393
  viability at 10 µM: 84%
SK-MEL-28 [2]
  viability at 10 µM: 83.4%
SK-MEL-2
  viability at 10 µM: 65.1%
HL-60(TB)
  viability at 10 µM: 101%
SR
  viability at 10 µM: 82.2%
A549
  viability at 10 µM: 63%
NCI-H226
  viability at 10 µM: 43.2%
NCI-H460
  viability at 10 µM: 65.3%
HCT-15
  viability at 10 µM: 37.8%
HCT-29
  viability at 10 µM: 32.9%
SF-539
  viability at 10 µM: 99.1%
LOX IMVI
  viability at 10 µM: 50.3%

## O=C(NCCNc1nccc(-c2c(-c3cccc(F)c3)nc3sccn23)n1)c1ccccc1
[3]
  IC50: 312 nM
[4]
  IC50: 37 nM
[5]
  IC50: 162 nM
L132
  IC50: 200000 nM
SK-MEL-28 [1]
  IC50: 17000 nM
A-375
  IC50: 5060 nM
MDA-MB-468
  viability at 10 µM: 57.4%
T47D
  viability at 10 µM: 34.5%
Hs-578T
  viability at 10 µM: 64.7%
MDA-MB-231
  viability at 10 µM: 65.1%
MCF7
  viability at 10 µM: 23.7%
DU-145
  viability at 10 µM: 64.5%
RXF 393
  viability at 10 µM: 60.6%
SK-MEL-28 [2]
  viability at 10 µM: 58.7%
SK-MEL-2
  viability at 10 µM: 51.4%
HL-60(TB)
  viability at 10 µM: 83.7%
SR
  viability at 10 µM: 29.4%
A549
  viability at 10 µM: 26.7%
NCI-H226
  viability at 10 µM: 44.3%
NCI-H460
  viability at 10 µM: 28.8%
HCT-15
  viability at 10 µM: 34.6%
HCT-29
  viability at 10 µM: 25.8%
SF-539
  viability at 10 µM: 81.2%
LOX IMVI
  viability at 10 µM: 35.1%

## O=S(=O)(NCCCNc1nccc(-c2c(-c3cccc(F)c3)nc3sccn23)n1)c1ccc(Cl)cc1
[3]
  IC50: 34 nM
[4]
  IC50: 16.2 nM
[5]
  IC50: 49.6 nM
SK-MEL-28 [1]
  IC50: 8450 nM
A-375
  IC50: 5900 nM
MDA-MB-468
  viability at 10 µM: 63.6%
T47D
  viability at 10 µM: 25.6%
Hs-578T
  viability at 10 µM: 94.6%
MDA-MB-231
  viability at 10 µM: 77.9%
MCF7
  viability at 10 µM: 61.7%
DU-145
  viability at 10 µM: 78.2%
RXF 393
  viability at 10 µM: 99.6%
SK-MEL-28 [2]
  viability at 10 µM: 92.3%
SK-MEL-2
  viability at 10 µM: 79.9%
HL-60(TB)
  viability at 10 µM: 106%
SR
  viability at 10 µM: 92.9%
A549
  viability at 10 µM: 66.9%
NCI-H226
  viability at 10 µM: 46.9%
NCI-H460
  viability at 10 µM: 75.4%
HCT-15
  viability at 10 µM: 49.6%
HCT-29
  viability at 10 µM: 36.9%
SF-539
  viability at 10 µM: 99.3%
LOX IMVI
  viability at 10 µM: 60.3%

## O=C(NCCNc1nccc(-c2c(-c3cccc(F)c3)nc3sccn23)n1)c1ccc(Cl)cc1
[3]
  IC50: 120 nM
[4]
  IC50: 27.2 nM
[5]
  IC50: 105 nM
SK-MEL-28 [1]
  IC50: 8160 nM
A-375
  IC50: 2570 nM
MDA-MB-468
  viability at 10 µM: 67.8%
T47D
  viability at 10 µM: 49%
Hs-578T
  viability at 10 µM: 74.8%
MDA-MB-231
  viability at 10 µM: 65.5%
MCF7
  viability at 10 µM: 27.7%
DU-145
  viability at 10 µM: 71%
RXF 393
  viability at 10 µM: 72.9%
SK-MEL-28 [2]
  viability at 10 µM: 64.9%
SK-MEL-2
  viability at 10 µM: 62.5%
HL-60(TB)
  viability at 10 µM: 99.2%
SR
  viability at 10 µM: 46.5%
A549
  viability at 10 µM: 34.8%
NCI-H226
  viability at 10 µM: 51.2%
NCI-H460
  viability at 10 µM: 35.8%
HCT-15
  viability at 10 µM: 40.1%
HCT-29
  viability at 10 µM: 35.2%
SF-539
  viability at 10 µM: 90%
LOX IMVI
  viability at 10 µM: 43.4%

## O=S(=O)(NCCCNc1nccc(-c2c(-c3cccc(F)c3)nc3sccn23)n1)c1ccc(Br)cc1
[3]
  IC50: 18.6 nM
[4]
  IC50: 9.3 nM
[5]
  IC50: 22.9 nM
SK-MEL-28 [1]
  IC50: 9400 nM
A-375
  IC50: 7040 nM
MDA-MB-468
  viability at 10 µM: 32.3%
T47D
  viability at 10 µM: 13.7%
Hs-578T
  viability at 10 µM: 71.7%
MDA-MB-231
  viability at 10 µM: 76.4%
MCF7
  viability at 10 µM: 41.9%
DU-145
  viability at 10 µM: 61.9%
RXF 393
  viability at 10 µM: 81.8%
SK-MEL-28 [2]
  viability at 10 µM: 67%
SK-MEL-2
  viability at 10 µM: 61.4%
HL-60(TB)
  viability at 10 µM: 75.9%
SR
  viability at 10 µM: 78.1%
A549
  viability at 10 µM: 55.1%
NCI-H226
  viability at 10 µM: 32.7%
NCI-H460
  viability at 10 µM: 60.5%
HCT-15
  viability at 10 µM: 26.4%
HCT-29
  viability at 10 µM: 23.8%
SF-539
  viability at 10 µM: 98%
LOX IMVI
  viability at 10 µM: 40.2%
